Measurements from patent publication US4264625A, “Pesticidal unsymmetrical bis-arylcarbamate sulfide compounds” (Union Carbide Corporation, priority 1978, dated 1981).

Experiments:
Type in all cases: in vivo
Bean = details: 2500 ppm spray, ten days, rating 1-5
Description: (§1) POST-EMERGENT HERBICIDAL TEST
(§2) Experiments were also conducted to determine the phytotoxicity of representative compositions with respect to healthy fresh plants. Solutions of the compounds were prepared as described above to provide a concentration of 2500 parts per million of the test compound. The test plants were sprayed in accordance with the procedure described above for the Mite Foliage Spray Test so as to deliver approximately 100 milliliters of test solution to the leaves of each plant tested. The sprayed plants and controls were set aside for approximately one hour to allow the solutions to dry and were then placed in the greenhouse. After ten days the plants were visually inspected to determine the extent of foliage injury. A rating of 1 indicates no perceptible injury; 5 indicates the plant was dead and ratings of 2, 3 and 4 indicate intermediate degrees of injury based upon the number and extent to which leaves were injured.

Corn = details: 2500 ppm spray, ten days, rating 1-5
Description: as §1, §2

Cotton = details: 2500 ppm spray, ten days, rating 1-5
Description: as §1, §2

Tomato = details: 2500 ppm spray, ten days, rating 1-5
Description: as §1, §2

Soybean = details: 2500 ppm spray, ten days, rating 1-5
Description: as §1, §2

[1] = test system: Mexican bean beetle (Epilachna varivestis, Muls.); assay: Mexican Bean Beetle Leaf Spray Test; design: key: A: excellent control; B: partial control; C: no control; details: 500 ppm leaf spray, fourth instar larvae, three days, mortality rating
Description: (§3) Suspensions of the test compounds were prepared by dissolving one gram of compound in 50 milliliters of acetone in which had been dissolved 0.1 gram (10 percent of the weight of compound) of an alkylphenoxy polyethoxyethanol surfactant, as an emulsifying or dispersing agent. The resulting solution was mixed into 150 milliliters of water to give roughly 200 milliliters of a suspension containing the compound in finely divided form. The thus-prepared stock suspension contained 0.5 percent by weight of compound. The test concentrations in parts per million by weight employed in the tests described hereinbelow were obtained by appropriate dilutions of the stock suspension with water. The test procedures were as follows:
Mexican Bean Beetle Leaf Spray Test
Fourth instar larvae of the Mexican bean beetle (Epilachna varivestis, Muls.), reared on Tendergreen bean plants at a temperature of 80°±5° F. and 50±5 percent relative humidity, were the test insects.
The test compounds were formulated by diluting the stock suspension with water to give a suspension containing 500 parts of test compound per million parts of final formulation. Potted Tendergreen bean plants of standard height and age were placed on a revolving turntable and sprayed with 100-110 milliliters of test compound formulation by use of a DeVilbiss spray gun set at 10 psig air pressure. This application, which lasted 25 seconds, was sufficient to wet plants to run-off. As a control, 100-110 milliliters of a water-acetone-emulsifier solution containing no test compound were also sprayed on infested plants. When dry, the paired leaves were separated and each was placed in a 9 centimeter Petri dish lined with moistened filter paper. Five randomly selected larvae were introduced into each dish, and the dishes were closed. The closed dishes were labeled and held at a temperature of 80°±5° F. for three days. Although the larvae could easily consume the leaf within 24 to 48 hours, no more food was added. Larvae which were unable to move the length of the body, even upon stimulation, were considered dead.
(§4) In these tests the pesticidal activity of the compounds against aphid, mite, Southern Armyworm, Bean Beetle and house fly was rated as follows: […]

[2] = test system: two-spotted mite (Tetranychus urticae Koch); assay: Mite Foliage Spray Test; design: key: A: excellent control; B: partial control; C: no control; details: 500 ppm foliage spray, six days, mortality rating
Description: as §3
Adults and nymphal stages of the two-spotted mite (Tetranychus urticae Koch), reared on Tendergreen bean plants at 80±5 percent relative humidity, were the test organisms. Infested leaves from a stock culture were placed on the primary leaves of two bean plants six to eight inches in height, growing in a two-and-a-half inch clay pot. 150-200 Mites, a sufficient number for testing, transferred from the excised leaves to the fresh plants in a period of twenty four hours. Following the twenty four hour transfer period, the excised leaves were removed from the infested plants. The test compounds were formulated by diluting the stock suspension with water to give a suspension containing 500 parts of test compound per million parts of final formulation. The potted plants (one pot per compound) were placed on a revolving turntable and sprayed with 100-110 milliliters of test compound formulation by use of a DeVilbiss spray gun set at 40 psig. air pressure. This application, which lasted 25 seconds, was sufficient to wet the plants to run-off. As a control, 100-110 milliliters of a water solution containing acetone and emulsifier in the same concentrations as the test compound formulation, but containing no test compound, were also sprayed on infested plants. The sprayed plants were held at 80±5 percent relative humidity for six days, after which a mortality count of motile forms was made. Microscopic examination for motile forms was made on the leaves of the test plants. Any individual which was capable of locomotion upon prodding was considered living.
as §4

[3] = test system: southern armyworm (Prodenia eridania, (Cram.)); assay: Southern Armyworm Leaf Spray Test; design: key: A: excellent control; B: partial control; C: no control; details: 500 ppm leaf spray, larvae, three days, mortality rating
Description: as §3
Southern Armyworm Leaf Spray Test
Larvae of the southern armyworm (Prodenia eridania, (Cram.)), reared on Tendergreen bean plants at a temperature of 80°±5° F. and a relative humidity of 50±5 percent, constituted the test insects.
The test compounds were formulated by diluting the stock suspension with water to give a suspension containing 500 parts of test compound per million parts of final formulation. Potted Tendergreen bean plants of standard height and age were placed on a revolving turntable and sprayed with 100-110 milliliters of test compound formulation by use of a DeVilbiss spray gun set at 10 psig air pressure. This application, which lasted 25 seconds, was sufficient to wet plants to run-off. As a control, 100-110 milliliters of a water-acetone-emulsifier solution containing no test compound were also sprayed on infested plants. When dry, the paired leaves were separated and each one was placed in a 9 centimeter Petri dish lined with moistened filter paper. Five randomly selected larvae were introduced into each dish and the dishes were closed. The closed dishes were labeled and held at 80°-85° F. for three days. Although the larvae could easily consume the whole leaf within twenty-four hours, no more food was added. Larvae which were unable to move the length of the body, even upon stimulation by prodding, were considered dead. Percent mortality was recorded for various concentration levels.
as §4

[4] = test system: house flies (Musca domestica, L.); assay: Fly Bait Test; design: key: A: excellent control; B: partial control; C: no control; details: 500 ppm in sugar-solution bait, 24 hours, mortality rating
Description: as §3
Four to six day old adult house flies (Musca domestica, L.) reared according to the specifications of the Chemical Specialties Manufacturing Association (Blue Book, McNair-Dorland Co., N.Y. 1954; pages 243-244, 261) under controlled conditions of 80°±5° F. and 50±5 percent relative humidity, were the test insects. The flies were immobilized by anesthetizing with carbon dioxide and twenty five immobilized individuals, males and females, were transferred to a cage consisting of a standard food strainer about five inches in diameter which was inverted over a wrapping-paper-covered surface. The test compounds were formulated by diluting the stock suspension with a 10 percent (by weight) sugar solution to give a suspension containing 500 parts of test compound per million parts of final formulation, by weight. Ten milliliters of the test formulation were added to a souffle cup containing a one-inch square of an absorbent cotton pad. This bait cup was introduced and centered on the blotting paper under the food strainer prior to admitting the anesthetized flies. The caged flies were allowed to feed on the bait for twenty four hours, at a temperature of 80°±5° F. and the relative humidity of 50±5 percent.
as §4

[5] = test system: bean aphid (Aphis fabae Scop.); assay: Bean Aphid Foliage Spray Test; design: key: A: excellent control; B: partial control; C: no control; details: 500 ppm foliage spray, 24 hours, mortality rating
Description: as §3
Bean Aphid Foliage Spray Test
Adults and nymphal stages of the bean aphid (Aphis fabae Scop.) reared on potted dwarf nasturtium plants at 65°-70° F. and 50-70 percent relative humidity, constituted the test insects. For testing purposes, the number of aphids per pot was standardized to 100-150 by trimming plants containing excess aphids.
The test compounds were formulated by diluting the stock suspension with water to give a suspension containing 500 parts of test compound per million parts of final formulation.
The potted plants (one pot per compound tested) infested with 100-150 aphids, were placed on a revolving turntable and sprayed with 100-110 milliliters of test compound formulation by use of a DeVilbiss spray gun set at 40 psig. air pressure. This application, which lasted 25 seconds, was sufficient to wet the plants to run-off. As a control, 100-110 milliliters of a water-acetone-emulsifier solution containing no test compound were also sprayed on infested plants. After spraying, the pots were placed on their sides on a sheet of white standard mimeograph paper which had been previously ruled to facilitate counting. Temperature and humidity in the test room during the 24 hour holding period were 65°-70° F. and 50-70 percent, respectively. Aphids which fell onto the paper and were unable to remain standing after being uprighted were considered dead. Aphids remaining on the plants were observed closely for movement and those which were unable to move the length of the body upon stimulation by prodding were considered dead. Percent mortality was recorded for various concentration levels.
as §4

Compound | Phytotoxicity, Bean (Bean) | Phytotoxicity, Corn (Corn) | Phytotoxicity, Cotton (Cotton) | Phytotoxicity, Tomato (Tomato) | Phytotoxicity, Soybean (Soybean) | Pesticidal Activity, Mexican Bean Beetle [1] | Pesticidal Activity, Mite [2] | Pesticidal Activity, Southern Armyworm [3] | Pesticidal Activity, House fly [4] | Pesticidal Activity, Aphid [5]
COC(=O)Nc1ccc(OC(=O)N(C)SN(C)C(=O)Oc2ccc(NC(=O)OC)c(C(C)C)c2)cc1C(C)C | 1 | 1 | 1 | 1 | 1 | A | C | A | C | C
Cc1cc(OC(=O)N(C)SN(C)C(=O)Oc2ccc(N=CN(C)C)c(C)c2)ccc1N=CN(C)C [drawing 41] | 1 | 1 | 1 | 1 | 2 | A | A | A | A | A
Cc1cc(OC(=O)N(C)SN(C)C(=O)Oc2ccc(N=CN(C)C)c(C)c2)ccc1N=CN(C)C [drawing 37] | 1 | 1 | 1 | 1 | 1 | A | A | A | A | A
CN(SN(C)C(=O)Oc1cccc2c1OC(C)(C)C2)C(=O)Oc1ccccc1C1SCCS1 | 1 | 1 | 1 | 1 | 1 | A | B | A | A | A
Cc1cc(OC(=O)N(C)SN(C)C(=O)Oc2ccc(N=CN(C)C)c(C)c2)ccc1N=CN(C)C [drawing 39] | 2 | 1 | 1 | 1 | 2 | A | A | A | A | A
C=CCc1ccc(OC(=O)N(C)SN(C)C(=O)Oc2ccc(CC=C)cc2OC)c(OC)c1 | 1 | 1 | 1 | 1 | 1 | C | C | C | C | C
CN(SN(C)C(=O)Oc1ccc(Oc2ccccc2)cc1)C(=O)Oc1ccc(Oc2ccccc2)cc1 | 1 | 1 | 1 | 1 | 1 | C | C | C | C | C
CCCCCCCCCCCCc1ccc(OC(=O)N(C)SN(C)C(=O)Oc2cccc3ccccc23)cc1 | 1 | 1 | 1 | 1 | 1 | A | C | A | C | C
C#CCOc1ccccc1OC(=O)N(C)SN(C)C(=O)Oc1cccc2ccccc12 | 1 | 1 | 1 | 1 | 2 | A | C | A | A | A
CCCCCCCCCc1ccc(OC(=O)N(C)SN(C)C(=O)Oc2cccc3ccccc23)cc1 | 1 | 1 | 1 | 1 | 1 | A | C | A | C | C
